EC50 and IC50 data for 2 compounds are collected here from US20250042922A1, “KRAS MODULATING COMPOUNDS” (priority 2023, published 2025).

The subject of assay [1] is cellular pERK in ASPC-1 (KRAS G12D) cells. Nature of the assay: Cell based pERK assay, ASPC-1. The settings on record: Homo sapiens, ASPC1; ASPC-1 (KRAS G12D), 2 hours incubation, HTRF phospho-ERK1/2; read-out: AsPC1 pERK EC50. In short, it runs like this:
(§1)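 Cells seeded overnight (5000 AsPC-1 or 7500 others per well; RPMI/10% FBS, DMEM/10% FBS for MIA-PaCa-2), treated with 1:3 serial dilutions for 2 h at 37 °C. Phospho-ERK1/2 (Thr202/Tyr204) measured by HTRF (665/615 nm) after overnight lysis, normalized to DMSO and saturating known-inhibitor controls.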
For orientation: Time-resolved FRET reads energy transfer from a long-lived donor to a nearby acceptor.

In assay [2] the test system is cellular pERK in Kuramochi (WT KRAS) cells. Nature of the assay: Cell based pERK assay, Kuramochi. The settings on record: Kuramochi (WT KRAS), 2 hours incubation, HTRF phospho-ERK1/2; read-out: Kuramochi pERK EC50. The procedure, abridged: as §1
In a further assay the target is GDP-loaded KRAS-G12D (Homo sapiens, UniProt P01116, G12D). Nature of the assay: KRAS (GDP) biochemical TR-FRET probe displacement assay, G12D. It counts as binding. As to conditions: 2 hours. The procedure: (§2) Compounds are tested for binding to GDP-loaded wild-type KRAS (WT), KRAS-G12C, KRAS-G12D, and KRAS-G12V in a 384-well assay format using a TR-FRET probe displacement assay in buffer consisting of 50 mM Hepes (pH 7.4), 150 mM NaCl, 5 mM MgCl2 and 0.005% Tween-20. […] Compounds are serially diluted (1:3) in DMSO. The LabCyte ECHO Acoustic dispenser was used to pre-spot the assay plates (384-well Non-Binding Surface plates, Corning, Catalog #3824) with 50 nL of compound. 5 μL of 2X enzyme concentration is added to the pre-spotted plates and incubated for 30 minutes before adding 5 μL of 2X concentration of Eu-streptavidin and Cy-5 labelled probe (10 μL final reaction volume). The plates are incubated at room temperature for 2 hours before measuring TR-FRET ratio (665 nm/615 nm) on the Envision multimode plate reader. The ratios are normalized to a positive (saturating concentration of known inhibitor) and negative (DMSO) control and plotted against the log of compound concentration.

The target of assay [3] is GDP-loaded wild-type KRAS (WT) (Homo sapiens, UniProt P01116). Nature of the assay: KRAS (GDP) biochemical TR-FRET probe displacement assay, WT. It counts as binding. As to conditions: 2 hours. The procedure: as §2
For another assay, the target named is GDP-loaded KRAS-G12V (Homo sapiens, UniProt P01116, G12V). Nature of the assay: KRAS (GDP) biochemical TR-FRET probe displacement assay, G12V. It counts as binding. The settings on record: 2 hours. The procedure:
as §2

A further assay has as its target GDP-loaded KRAS-G12C (Homo sapiens, UniProt P01116, G12C). Nature of the assay: KRAS (GDP) biochemical TR-FRET probe displacement assay, G12C. It counts as binding. As to conditions: 2 hours. The procedure:
as §2

The subject of assay [4] is cellular pERK in NCI-H441 (KRAS-G12V) cells. Nature of the assay: Cell based pERK assay, NCI-H441. The settings on record: Homo sapiens; NCI-H441 (KRAS-G12V), 2 hours incubation, HTRF phospho-ERK1/2; read-out: H441 PERK EC50. The procedure, abridged:
as §1

For assay [5], the system named is cellular pERK in MIA-PaCa-2 (KRAS-G12C) cells. Nature of the assay: Cell based pERK assay, MIA-PaCa-2. The settings on record: Homo sapiens; MIA-PaCa-2 (KRAS-G12C), 2 hours incubation, HTRF phospho-ERK1/2; read-out: MIAPaCa2 pERK EC50. In short, it runs like this:
as §1

The structures appear in SMILES notation. A value given as a limit tells only on which side of the number the result lay.

Sequence of GDP-loaded KRAS-G12D (P01116 1-188 isoform P01116-2 G12D): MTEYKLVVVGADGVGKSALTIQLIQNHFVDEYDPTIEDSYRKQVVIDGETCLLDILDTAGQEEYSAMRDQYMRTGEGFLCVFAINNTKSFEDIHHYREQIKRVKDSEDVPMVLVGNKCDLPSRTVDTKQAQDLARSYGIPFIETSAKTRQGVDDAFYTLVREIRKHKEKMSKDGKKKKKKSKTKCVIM
Sequence of GDP-loaded KRAS-G12C (P01116 1-188 isoform P01116-2 G12C): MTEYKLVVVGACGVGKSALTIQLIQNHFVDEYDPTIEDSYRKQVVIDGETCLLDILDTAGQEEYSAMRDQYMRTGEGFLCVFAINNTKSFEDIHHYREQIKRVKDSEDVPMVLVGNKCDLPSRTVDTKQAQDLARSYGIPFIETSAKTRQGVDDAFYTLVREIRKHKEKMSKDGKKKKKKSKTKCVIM
Sequence of GDP-loaded wild-type KRAS (WT) (P01116 1-188 isoform P01116-2): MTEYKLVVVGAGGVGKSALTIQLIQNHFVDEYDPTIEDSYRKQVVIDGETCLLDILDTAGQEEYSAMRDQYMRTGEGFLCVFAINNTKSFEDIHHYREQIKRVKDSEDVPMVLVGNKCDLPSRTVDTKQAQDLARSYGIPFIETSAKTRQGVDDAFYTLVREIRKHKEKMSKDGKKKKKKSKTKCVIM
Sequence of GDP-loaded KRAS-G12V (P01116 1-188 isoform P01116-2 G12V): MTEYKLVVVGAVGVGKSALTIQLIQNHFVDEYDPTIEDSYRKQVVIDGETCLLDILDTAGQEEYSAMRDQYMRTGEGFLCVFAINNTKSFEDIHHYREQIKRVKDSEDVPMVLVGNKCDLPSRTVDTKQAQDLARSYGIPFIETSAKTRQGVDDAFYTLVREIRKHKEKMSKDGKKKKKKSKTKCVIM

Turning to `Nc1cc(-c2nc3c4c(nc(OCC56CCCN5CCC6)nc4c2F)N2C[C@@]4(F)CC[C@](F)(N4)[C@H]2CCC3)c2c(OC(F)(F)F)c(F)ccc2c1` [Example 5-5, 6-fluoro-4-[(4S,7R,8R)-4,7,15-trifluoro-18-(1,2,3,5,6,7-hexahydropyrrolizin-8-ylmethoxy)-2,13,17,19,21-pentazapentacyclo[10.7.1.14,7.02,8.016,20]henicosa-1(19),12(20),13,15,17-pentaen-14-yl]-5-(trifluoromethoxy)naphthalen-2-amine], the EC50 stood at 519 nM in assay [1], 5.9 nM in assay [2], 221 nM in assay [4] and 33.6 nM in assay [5]. Also, the IC50 at GDP-loaded KRAS-G12D was at least 100 nM; in assay [3], 18.5 nM; at GDP-loaded KRAS-G12V, 85 nM; at GDP-loaded KRAS-G12C, 21.6 nM.
On to `C#Cc1c(F)c(F)cc2cc(N)cc(-c3nc4c5c(nc(OCC67CCCN6CCC7)nc5c3F)N3C[C@@]5(F)CC[C@](F)(N5)[C@@H]3[C@@H](C)C4)c12` [Example 5-7, 5-ethynyl-6,7-difluoro-4-((5S,5aS,6R,9S)-1,6,9-trifluoro-5-methyl-12-((tetrahydro-1H-pyrrolizin-7a(5H)-yl)methoxy)-4,5,5a,6,7,8,9,10-octahydro-3,10a,11,13,14-pentaaza-6,9-methanonaphtho[1,8-ab]heptalen-2-yl)naphthalen-2-amine], for which the EC50 in assay [1] amounted to 12.4 nM; in assay [2], 2.75 nM; in assay [4], 3.1 nM; in assay [5], 0.378 nM. The IC50 stood at 1.03 nM on GDP-loaded KRAS-G12D, 0.116 nM in assay [3], 0.723 nM on GDP-loaded KRAS-G12V and 0.311 nM at GDP-loaded KRAS-G12C.

As a reminder, the EC50 is the concentration needed to bring the measured effect to its halfway point. For orientation: IC50 means the concentration needed to halve the response being measured. Low readings indicate higher potency, high ones lower potency.
